# Structures can show the parent of a compound that is named as a salt.
# Legend:
# Type in all cases: in vivo
# Male C57BL/6N mice [1] = assay: Relative weights of spleen and thymus to body weight in mice; conditions: 30 days
# Description: Male C57BL/6N mice were used in Example 2, 28 mice in total. The 28 mice were used for pretest for 7 days before the treatment began. Two groups of 14 mice were then created. […] Each group contained […]. The treatment period was for 30 days. Lymphocyte transformation rate in plasma, white blood cell (WBC) count, natural killer cell activity, Plasma IL-2 (Kit provided by Jinginei Biotech) and IL-6 (Kit provided by Bender MedSystems) measurements, and antibody forming, cell count were performed according to methods known to the skilled artisan (see “Medical Immunology Experiment,” Publisher: People Hygiene, Published in 1999 in China, Editor: Xi Chuan Ping). Five days before the end of the treatment, 12 mice from each group (each replicate for 2 mice) were immunized with 0.5 ml of 2% sheep RBC (equivalent to −2×10^8 cells per ml) for testing spleen B-cells. The relative weights of spleen and thymus to body weight (mg/100 g BW) were also measured. All statistical analyses were performed on ANOVA. After conducting all tests and analyses, the relative weight of certain immune organs, namely the thymus and spleen, were measured, as illustrated in Table 4.
# IL-2 [2] = assay: Serum IL-2 concentration (RIA) in goats pre- and post-operation
# Method: (§1) An experiment was conducted on sixteen castrated adult goats, which were randomly divided into control group (n=8) and treatment group (TG, n=8); housed separately; and fed with the same nutrient level. The TG was treated orally with a cysteamine compound (the cysteamine compound is preferably cysteamine hydrochloride, where a dose of 45 mg/kg of body weight was administered, with 30% of the 45 mg/kg dosage comprising the cysteamine compound) provided by Shanghai Walcom Bio-Chem Ltd). Both groups were subjected to rumen operation and duodenum operation.
# (§2) This experiment was conducted in four phases: (a) Roughage phase pre-operation: from day 18 to day 14 before the operation, both groups of goats were fed with roughage (dried peanut stalk) and water; (b) Concentrate phase pre-operation: day 13 to day 1 before the operation (in total 13 days), both groups were fed with roughage and concentrate (50 g/head), and the TG was also treated with a cysteamine compound (using dosages described above) at the same time; (c) Rumen operation phase: after completion of the concentrate phase pre-operation, the rumen operation was performed to affix a fistula on the rumen, which was followed by 18 days of recovery; (d) Duodenum operation phase: 18 days after the rumen operation, a second operation was performed to affix a fistula on the duodenum, following which the goats were allowed to have 17 days of recovery to complete this experiment. The feeding diet during the operation was same as that of concentrate phase per-operation.
# (§3) While conducting the experiment, blood samples were periodically collected. In general, blood was collected via the neck vein before morning feeding. Part of the blood from each sample was stored in tubes containing heparin for anti-coagulation. The remaining part of each blood sample was centrifuged and then stored the serum at −20° C. Blood samples were collected at the following times: (a) Day 4 of the Roughage phase pre-operation; (b) Day 13 of the Concentrate phase (one day before the operation, B1); (c) 10 days after the 1st operation (rumen operation); and (d) 6 days and 17 days after the 2nd operation (duodenum operation).
# (§4) Serum IL-2, cortisol concentration and lymphatic transformation testing were also performed during the experiment. […] To perform lymphatic cells transformation test, the blood samples from both groups were treated as follows: 3 tubes/sample, with blood sample 100 ul/tube for PHA− (PHA−: without PHA) and 3 tubes/sample for PHA+(PHA+: each tube added with 50 ul PHA diluted solution); cells in both PHA− and PHA+ were cultured for total 72 hours. After 48 hours of cell culture, 1 uL ^3H-TdR was added to each tube with and mixed with cells and incubated further for 24 hours. At the completion of the culturing process, the cells were lysed. The lysate from both PHA− and PHA+ tubes were transferred to scintillation bottles, dried at 80° C., then added with 5 ml scintillation solution. The solutions were stored overnight and tested for cpm. SI index implies the rate of lymphatic cells transformation induced by lectin, SI=cpm(PHA+)/cpm(PHA−).
# (§5) IL-2 and cortisol testing kits were used. To prepare RPMI-1640 cell culture medium, RPMI-1640 powder was added with distillated water and filtered, and 20% Fetal Bovine Serum, Penicillin (100 U/ml) as well as Streptomycin (100 U/ml) was added. 2 ml culture medium solution was then added to each tube. In addition, diluted PHA, [Methy-^3H] Thymidine with radioactivity 1 mci/m, and Scintillation solution: PPO (2,5, Diphenyloxazole,) 5 g POPOP(1,4bis [5-phenyloxazolyl] benzene) 0.3 g Dimethyl benzene: 800 mL; 100% ethanol: 200 ml were added to each tube.
# All data from the experiment (see Table 1) were expressed in mean±SE and analyzed by Excel software for t-test analysis, where P<0.05 implies significant difference, and 0.05<P<0.15 implies changes. The symbol “§” in Table 1 denotes TG treated with Cysteamine. […]
# lymphocyte = assay: Lymphocyte transformation rate (SI value, PHA) in mice; conditions: 30 days
# Description: Male C57BL/6N mice were used in Example 2, 28 mice in total. The 28 mice were used for pretest for 7 days before the treatment began. Two groups of 14 mice were then created. […] Each group contained six replicates and each replicate contained 8 mice. The treatment period was for 30 days. Lymphocyte transformation rate in plasma, white blood cell (WBC) count, natural killer cell activity, Plasma IL-2 (Kit provided by Jinginei Biotech) and IL-6 (Kit provided by Bender MedSystems) measurements, and antibody forming, cell count were performed according to methods known to the skilled artisan (see “Medical Immunology Experiment,” Publisher: People Hygiene, Published in 1999 in China, Editor: Xi Chuan Ping). Five days before the end of the treatment, 12 mice from each group (each replicate for 2 mice) were immunized with 0.5 ml of 2% sheep RBC (equivalent to −2×10^8 cells per ml) for testing spleen B-cells. The relative weights of spleen and thymus to body weight (mg/100 g BW) were also measured. All statistical analyses were performed on ANOVA. The WBC count, lymphocyte transformation rate (specifically in the spleen), antibody forming cell, and natural killer cell killing rate (based on the killing rate of K562 cells by natural killer cell) were measured and analyzed, as illustrated in Tables 4and5. […]
# IL-6 = assay: Plasma IL-6 measurement in mice; conditions: 30 days
# Description: (§6) Male C57BL/6N mice were used in Example 2, 28 mice in total. The 28 mice were used for pretest for 7 days before the treatment began. Two groups of 14 mice were then created. […] Each group contained six replicates and each replicate contained 8 mice. The treatment period was for 30 days. Lymphocyte transformation rate in plasma, white blood cell (WBC) count, natural killer cell activity, Plasma IL-2 (Kit provided by Jinginei Biotech) and IL-6 (Kit provided by Bender MedSystems) measurements, and antibody forming, cell count were performed according to methods known to the skilled artisan (see “Medical Immunology Experiment,” Publisher: People Hygiene, Published in 1999 in China, Editor: Xi Chuan Ping). Five days before the end of the treatment, 12 mice from each group (each replicate for 2 mice) were immunized with 0.5 ml of 2% sheep RBC (equivalent to −2×10^8 cells per ml) for testing spleen B-cells. The relative weights of spleen and thymus to body weight (mg/100 g BW) were also measured. All statistical analyses were performed on ANOVA.
# lymphatic cells = assay: Lymphatic cells transformation test (PHA, 3H-TdR, SI) on blood of goats pre- and post-operation
# Method: as §1, §2
# While conducting the experiment, blood samples were periodically collected. In general, blood was collected via the neck vein before morning feeding. Part of the blood from each sample was stored in tubes containing heparin for anti-coagulation. […]
# IL-2 and cortisol testing kits were used. […] Thymidine with radioactivity 1 mci/m, and Scintillation solution: PPO (2,5, Diphenyloxazole,) 5 g POPOP(1,4bis [5-phenyloxazolyl] benzene) 0.3 g Dimethyl benzene: 800 mL; 100% ethanol: 200 ml were added to each tube.
# spleen B-cells = assay: Antibody forming cell count (spleen B-cells after sheep RBC immunization) in mice; conditions: 30 days, immunized with sheep RBC
# Description: (§7) Male C57BL/6N mice were used in Example 2, 28 mice in total. The 28 mice were used for pretest for 7 days before the treatment began. Two groups of 14 mice were then created. […] Each group contained six replicates and each replicate contained 8 mice. The treatment period was for 30 days.
# (§8) Lymphocyte transformation rate in plasma, white blood cell (WBC) count, natural killer cell activity, Plasma IL-2 (Kit provided by Jinginei Biotech) and IL-6 (Kit provided by Bender MedSystems) measurements, and antibody forming, cell count were performed according to methods known to the skilled artisan (see “Medical Immunology Experiment,” Publisher: People Hygiene, Published in 1999 in China, Editor: Xi Chuan Ping). Five days before the end of the treatment, 12 mice from each group (each replicate for 2 mice) were immunized with 0.5 ml of 2% sheep RBC (equivalent to −2×10^8 cells per ml) for testing spleen B-cells. The relative weights of spleen and thymus to body weight (mg/100 g BW) were also measured. All statistical analyses were performed on ANOVA.
# (§9) The WBC count, lymphocyte transformation rate (specifically in the spleen), antibody forming cell, and natural killer cell killing rate (based on the killing rate of K562 cells by natural killer cell) were measured and analyzed, as illustrated in Tables 4and5.
# K562 cells = assay: Natural killer cell killing rate in mice; conditions: 30 days, killing of K562 cells
# Description: as §7, §8, §9
# IL-2 [3] = assay: Plasma IL-2 measurement in mice; conditions: 30 days
# Description: as §6
# cortisol = assay: Serum cortisol concentration (RIA) in goats pre- and post-operation
# Method: as §1, §2, §3, §4, §5
# Cortisol concentrations of the two groups before the operation were substantially similar (20.51±4.1 for the control group versus 20.32±4.0 ug 1^−1 for the TG). Changes in cortisol concentration levels in the TG before and after the 1st operation were slight. […]
# Male C57BL/6N mice [4] = assay: White blood cell (WBC) count in mice; conditions: 30 days
# Description: as §7, §8, §9
structure (smiles),measurement,setting,value
"NCCS [Cysteamine hydrochloride, cysteamine hydrochloride]",Spleen weight,Male C57BL/6N mice [1]; Treatment 1: 40 mg/kg BW oral,298 ± 5.03 mg/100 g of body weight
same,Thymus weight,Male C57BL/6N mice [1]; Treatment 1: 40 mg/kg BW oral,549 ± 1.89 ^B mg/100 g of body weight
same,Spleen weight,Male C57BL/6N mice [1]; Treatment 2: 80 mg/kg BW oral,296 ± 7.50 mg/100 g of body weight
same,Thymus weight,Male C57BL/6N mice [1]; Treatment 2: 80 mg/kg BW oral,567 ± 7.18 ^A mg/100 g of body weight
same,difference in IL-2 concentration levels between the two groups,IL-2 [2]; after 17 days from the 2nd operation,had disappeared
same,TG IL-2 concentration levels higher than the control group,"IL-2 [2]; after the first operation (Day 10 after 1st, Day 6 after 2nd operation), P<0.05",90-100%
same,"IL-2 concentration in TG, pre- versus post-operation",IL-2 [2]; treatment group,no significant difference between pre- and post-operation
same,IL-2 serum concentration,"IL-2 [2]; treatment group n=8, oral 45 mg/kg BW (30% cysteamine compound), pre-operation Concentrate phase, listed as Cysteamine, hydrochloride, 45 mg/kg",0.97 ± 0.15 µg/L
same,IL-2 serum concentration,"IL-2 [2]; treatment group n=8, oral 45 mg/kg BW (30% cysteamine compound), pre-operation Concentrate phase, listed as cysteamine compound, hydrochloride, 45 mg/kg",0.97 ± 0.15 µg/L
same,IL-2 serum concentration,"IL-2 [2]; treatment group, oral 45 mg/kg BW, after 1st (rumen) operation, Day 10, listed as Cysteamine, hydrochloride, 45 mg/kg",1.32 ± 0.10 ^A ug/l
same,IL-2 serum concentration,"IL-2 [2]; treatment group, oral 45 mg/kg BW, after 1st (rumen) operation, Day 10, listed as cysteamine compound, hydrochloride, 45 mg/kg",1.32 ± 0.10 µg/L
same,IL-2 serum concentration,"IL-2 [2]; treatment group, oral 45 mg/kg BW, after 2nd (duodenum) operation, Day 6, listed as Cysteamine, hydrochloride, 45 mg/kg",0.95 ± 0.06 ^B ug/l
same,IL-2 serum concentration,"IL-2 [2]; treatment group, oral 45 mg/kg BW, after 2nd (duodenum) operation, Day 6, listed as cysteamine compound, hydrochloride, 45 mg/kg",0.95 ± 0.06 µg/L
same,IL-2 serum concentration,"IL-2 [2]; treatment group, oral 45 mg/kg BW, after 2nd (duodenum) operation, Day 17",1.02 ± 0.08 µg/L
same,"Lymphocyte Transformation (SI Value, Stimulation Index)",lymphocyte; Treatment 1: 40 mg/kg BW oral,1.15 ± 0.02 ^B
same,"Lymphocyte Transformation (SI Value, Stimulation Index)",lymphocyte; Treatment 2: 80 mg/kg BW oral,1.24 ± 0.05 ^A
same,Plasma IL-6,IL-6; Treatment 1: 40 mg/kg BW oral,226.20 ± 37.93 pg/mL
same,Plasma IL-6,IL-6; Treatment 2: 80 mg/kg BW oral,247.00 ± 51.76 pg/mL
same,degree of decrease in lymphatic cells transformation rate caused by surgical operations,"lymphatic cells; TG versus control group, P<0.05",significantly smaller than that of the control group
same,rate of TG lymphatic cell transformation increased compared to the rate of the control group,"lymphatic cells; six days after the 2nd/duodenum operation, P<0.05",3.5 fold
same,lymphatic cells transformation rate (SI),"lymphatic cells; treatment group, oral 45 mg/kg BW, Concentrate phase pre-operation, P=0.14 vs control",132.4±20.3
same,"Antibody Forming Cell (OD, Optical Density)",spleen B-cells; Treatment 1: 40 mg/kg BW oral,1.48 ± 0.19 ^A OD
same,"Antibody Forming Cell (OD, Optical Density)",spleen B-cells; Treatment 2: 80 mg/kg BW oral,0.91 ± 0.51 ^C OD
same,NK Killing Rate,K562 cells; Treatment 1: 40 mg/kg BW oral,92.19 ± 2.20%
same,NK Killing Rate,K562 cells; Treatment 2: 80 mg/kg BW oral,93.60 ± 2.21%
same,Plasma IL-2,IL-2 [3]; Treatment 1: 40 mg/kg BW oral,5.88 ± 0.53 pg/mL
same,Plasma IL-2,IL-2 [3]; Treatment 2: 80 mg/kg BW oral,5.76 ± 0.50 pg/mL
same,cortisol concentration before the operation,"cortisol; TG, before the operation",20.32±4.0 ug 1^−1
same,changes in cortisol concentration levels in the TG before and after the 1st operation,cortisol; treatment group,slight
same,cortisol serum concentration,"cortisol; treatment group n=8, oral 45 mg/kg BW, pre-operation Concentrate phase",20.3 ± 4.0 µg/L
same,cortisol serum concentration,"cortisol; treatment group, after 1st operation, Day 10",20.9 ± 3.7 µg/L
same,cortisol serum concentration,"cortisol; treatment group, after 2nd operation, Day 6",21.2 ± 5.2 µg/L
same,cortisol serum concentration,"cortisol; treatment group, after 2nd operation, Day 17",20.7 ± 5.8 µg/L
same,WBC Count,Male C57BL/6N mice [4]; Treatment 1: 40 mg/kg BW oral,7.12 ± 0.65 10^9/L
same,WBC Count,Male C57BL/6N mice [4]; Treatment 2: 80 mg/kg BW oral,7.53 ± 0.55 10^9/L

# Source: patent US20080226648A1, “Methods for Treating Stress and Affecting Biological Immune Systems” (priority 2004, published 2008)
